According to patent US20250136619A1, “HETEROBIFUNCTIONAL COMPOUNDS AND THEIR USE IN TREATING DISEASE” (HALDA THERAPEUTICS OPCO, INC., priority 2021, published 2025):
Like-named read-outs stand apart in the source and are kept apart here.

How the values were obtained:
[1] = test system: HeLa cells; assay: Cellular growth inhibition assay (CellTiter-Glo), HeLa cells; format: cell-based; conditions: HeLa cells, three days of compound treatment, CellTiter-Glo 2.0, read-out: CTG HELA GI50
In short: (§1)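 HeLa or HEK293 cells in DMEM with 10% FBS exposed to titrated compound for three days at 37 °C, 5% CO2, 24 h after seeding. Viability by CellTiter-Glo 2.0 luminescence, normalized to DMSO Day 0 and Day 3 readings; four-parameter fit gives GI50.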

[2] = test system: HEK293 cells; assay: Cellular growth inhibition assay (CellTiter-Glo), HEK293 cells; format: cell-based; conditions: HEK293 cells, three days of compound treatment, CellTiter-Glo 2.0, read-out: CTG HEK293 GI50
In short: as §1

[3] = target: CDK9 (Homo sapiens (Human), UniProt P50750); assay: KdELECT assay for binding affinity to CDK9
Description: (§2) Compounds were tested using a KdELECT. Kinase-tagged T7 phage strains were prepared in an E. coli host derived from the BL21 strain. E. coli were grown to log-phase and infected with T7 phage and incubated with shaking at 32° C. until lysis. The lysates were centrifuged and filtered to remove cell debris. The remaining kinases were produced in HEK-293 cells and subsequently tagged with DNA for qPCR detection. Streptavidin-coated magnetic beads were treated with biotinylated small molecule ligands for 30 minutes at room temperature to generate affinity resins for kinase assays. The liganded beads were blocked with excess biotin and washed with blocking buffer (SeaBlock (Pierce), 1% BSA, 0.05% Tween 20, 1 mM DTT) to remove unbound ligand and to reduce non-specific binding. Binding reactions were assembled by combining kinases, liganded affinity beads, and test compounds in 1×binding buffer (20% SeaBlock, 0.17×PBS, 0.05% Tween 20, 6 mM DTT). Test compounds were prepared as 111X stocks in 100% DMSO. Kd values were determined using an 11-point 3-fold compound dilution series with three DMSO control points. All compounds for Kd measurements are distributed by acoustic transfer (non-contact dispensing) in 100% DMSO. The compounds were then diluted directly into the assays such that the final concentration of DMSO was 0.9%. All reactions performed in polypropylene 384-well plate. Each was a final volume of 0.02 mL. The assay plates were incubated at room temperature with shaking for 1 hour and the affinity beads were washed with wash buffer (1×PBS, 0.05% Tween 20). The beads were then re-suspended in elution buffer (1×PBS, 0.05% Tween 20, 0.5 μM nonbiotinylated affinity ligand) and incubated at room temperature with shaking for 30 minutes. The kinase concentration in the eluates was measured by qPCR.

[4] = target: BTK (Homo sapiens (Human), UniProt Q06187); assay: KdELECT assay for binding affinity to BTK
In short: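 Competition binding of test compound against bead-immobilized biotinylated ligand; kinase as T7 phage fusion or HEK-293-expressed DNA-tagged protein. 11-point 3-fold dilution, 0.9% DMSO final, 1 h room temperature with shaking. Bound kinase eluted with 0.5 μM non-biotinylated ligand and quantified by qPCR; Kd derived.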

[5] = target: mTOR (Homo sapiens (Human), UniProt P42345); assay: KdELECT assay for binding affinity to mTOR
Description: as §2, with “KdELECT assay.” for “KdELECT.”

Chain of BTK (Q06187 whole entry, the tested form may be a part): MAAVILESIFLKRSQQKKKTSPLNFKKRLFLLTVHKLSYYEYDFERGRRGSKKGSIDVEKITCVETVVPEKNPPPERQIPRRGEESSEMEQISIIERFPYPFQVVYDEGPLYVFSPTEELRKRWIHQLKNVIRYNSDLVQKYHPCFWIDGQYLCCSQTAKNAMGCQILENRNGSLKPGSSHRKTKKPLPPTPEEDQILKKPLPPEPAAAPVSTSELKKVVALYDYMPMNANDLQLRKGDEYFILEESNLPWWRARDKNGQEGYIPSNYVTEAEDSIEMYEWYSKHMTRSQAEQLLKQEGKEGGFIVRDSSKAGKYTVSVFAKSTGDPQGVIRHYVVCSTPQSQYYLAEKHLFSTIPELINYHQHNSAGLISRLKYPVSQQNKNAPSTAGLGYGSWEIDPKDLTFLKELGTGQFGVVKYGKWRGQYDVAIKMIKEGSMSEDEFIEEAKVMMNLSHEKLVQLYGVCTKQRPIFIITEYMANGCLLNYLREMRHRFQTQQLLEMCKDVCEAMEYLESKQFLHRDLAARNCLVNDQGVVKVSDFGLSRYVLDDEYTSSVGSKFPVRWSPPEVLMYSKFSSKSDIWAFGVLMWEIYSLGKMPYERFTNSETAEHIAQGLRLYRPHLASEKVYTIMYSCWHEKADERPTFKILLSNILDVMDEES
Chain of CDK9 (P50750 whole entry): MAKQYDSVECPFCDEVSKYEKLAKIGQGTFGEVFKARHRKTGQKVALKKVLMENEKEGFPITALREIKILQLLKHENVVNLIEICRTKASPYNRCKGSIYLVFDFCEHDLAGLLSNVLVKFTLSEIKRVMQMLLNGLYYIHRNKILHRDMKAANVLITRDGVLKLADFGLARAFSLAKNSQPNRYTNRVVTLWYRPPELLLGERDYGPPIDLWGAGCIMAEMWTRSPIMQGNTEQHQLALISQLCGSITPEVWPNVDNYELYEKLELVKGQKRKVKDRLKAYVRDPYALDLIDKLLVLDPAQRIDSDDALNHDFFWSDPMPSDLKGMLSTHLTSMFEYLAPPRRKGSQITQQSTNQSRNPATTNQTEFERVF

| GI50 ([1]; Homo sapiens, 72 h) | Kd [3] | Kd [4] | GI50 [1] | Kd [5] | SMILES | GI50 ([2]; Homo sapiens, 72 h) | GI50 [2] |
| --- | --- | --- | --- | --- | --- | --- | --- |
| < 500 nM | 50 to 500 nM | < 50 nM | – | – | CCc1cnn2c(NCc3ccc(OCCOCCOCCOC4CCN(C/C=C/C(=O)N5CCC[C@@H](n6nc(-c7ccc(Oc8ccccc8)cc7)c7c(N)ncnc76)C5)CC4)nc3)cc(N3CCCC[C@H]3CCO)nc12 [Compound I-70, (E)-1-((R)-3-(4-amino-3-(4-phenoxyphenyl)-1H-pyrazolo[3,4-d]pyrimidin-1-yl)piperidin-1-yl)-4-(4-(2-(2-(2-((5-(((3-ethyl-5-((S)-2-(2-hydroxyethyl)piperidin-1-yl)pyrazolo[1,5-a]pyrimidin-7-yl)amino)methyl)pyridin-2-yl)oxy)ethoxy)ethoxy)ethoxy)piperidin-1-yl) but-2-en-1-one] | 500 to 1500 nM | – |
| – | < 50 nM | < 50 nM | < 500 nM | – | CCc1cnn2c(NCc3ccc(OCCCN4CCN(CCCN(C)C/C=C/C(=O)N5CCC[C@@H](n6nc(-c7ccc(Oc8ccccc8)cc7)c7c(N)ncnc76)C5)CC4)nc3)cc(N3CCCC[C@H]3CCO)nc12 [Compound I-69] | – | < 500 nM |
| < 500 nM | 50 to 500 nM | < 50 nM | – | – | CCc1cnn2c(NCc3ccc(OCCOCCOCCOCCOCCOC/C=C/C(=O)N4CCC[C@@H](n5nc(-c6ccc(Oc7ccccc7)cc6)c6c(N)ncnc65)C4)nc3)cc(N3CCCC[C@H]3CCO)nc12 [Compound I-42] | 500 to 1500 nM | – |
| 1500 to 5000 nM | 50 to 500 nM | < 50 nM | – | – | Cc1c(NC(=O)c2ccc(C3CC3)cc2F)cc(F)cc1-c1ncnc(N)c1OCCN(C)C(=O)/C=C/CN(C)CCCN1CCN(CCCNS(=O)(=O)c2ccc(Nc3ncc(Br)c(Nc4cccc(F)c4C(N)=O)n3)cc2)CC1 [Compound I-79, 2-[[2-[4-[3-[4-[3-[[(E)-4-[2-[4-amino-6-[3-[(4-cyclopropyl-2-fluoro-benzoyl)amino]-5-fluoro-2-methyl-phenyl]pyrimidin-5-yl]oxyethyl-methyl-amino]-4-oxo-but-2-enyl]-methyl-amino]propyl]piperazin-1-yl]propylsulfamoyl]anilino]-5-bromo-pyrimidin-4-yl]amino]-6-fluoro-benzamide] | > 5000 nM | – |

Continued, molecule first:

| SMILES | GI50 ([1]; Homo sapiens, 72 h) | Kd [3] | Kd [4] | GI50 [1] | Kd [5] | GI50 ([2]; Homo sapiens, 72 h) | GI50 [2] |
| --- | --- | --- | --- | --- | --- | --- | --- |
| C[C@@H]1COCCN1c1nc(N2CCOC[C@H]2C)c2ccc(-c3cccc(C(=O)NCCCCCCCCOc4ccc(C(=O)NC5C(C)(C)C(Oc6ccc(C#N)c(Cl)c6)C5(C)C)cc4)c3)nc2n1 (stereo partly drawn) [Compound I-8, 3-[2,4-bis[(3R)-3-methylmorpholin-4-yl]pyrido[2,3-d]pyrimidin-7-yl]-N-[8-[4-[[3-(3-chloro-4-cyano-phenoxy)-2,2,4,4-tetramethyl-cyclobutyl]carbamoyl]phenoxy]octyl]benzamide] | – | – | 50 to 500 nM | – | > 2500 nM | – | – |
| Nc1nc2cc(-c3nn(CCCCC(=O)NCCCCCCCC/C=C/C(=O)N4CCC[C@@H](n5nc(-c6ccc(Oc7ccccc7)cc6)c6c(N)ncnc65)C4)c4ncnc(N)c34)ccc2o1 [Compound I-2, 5-[4-amino-3-(2-amino-1,3-benzoxazol-5-yl)pyrazolo[3,4-d]pyrimidin-1-yl]-N—[(E)-11-[(3R)-3-[4-amino-3-(4-phenoxyphenyl)pyrazolo[3,4-d]pyrimidin-1-yl]-1-piperidyl]-11-oxo-undec-9-enyl]pentanamide] | – | – | – | – | 500 to 2500 nM | – | – |
| C[C@@H]1COCCN1c1nc(N2CCOC[C@H]2C)c2ccc(-c3cccc(C(=O)NCCCCCCCC/C=C/C(=O)N4CCC[C@@H](n5nc(-c6ccc(Oc7ccccc7)cc6)c6c(N)ncnc65)C4)c3)nc2n1 [Compound I-7, N—[(E)-11-[(3R)-3-[4-amino-3-(4-phenoxyphenyl)pyrazolo[3,4-d]pyrimidin-1-yl]-1-piperidyl]-11-oxo-undec-9-enyl]-3-[2,4-bis[(3R)-3-methylmorpholin-4-yl]pyrido[2,3-d]pyrimidin-7-yl]benzamide] | – | – | 50 to 500 nM | – | 50 to 500 nM | – | – |
| C[C@@H]1COCCN1c1nc(N2CCOC[C@H]2C)c2ccc(-c3cccc(C(=O)NCCOCCOCCOCCOCCOCCOCCOCCOCCOc4ccc(C(=O)N[C@H]5C(C)(C)[C@H](Oc6ccc(C#N)c(Cl)c6)C5(C)C)cc4)c3)nc2n1 [Compound I-9, N-[2-[2-[2-[2-[2-[2-[2-[2-[2-[4-[[3-(3-chloro-4-cyano-phenoxy)-2,2,4,4-tetramethyl-cyclobutyl]carbamoyl]phenoxy]ethoxy]ethoxy]ethoxy]ethoxy]ethoxy]ethoxy]ethoxy]ethoxy]ethyl]-3-[2-[(3R)-3-methylmorpholin-4-yl]-4-(3-methylmorpholin-4-yl)pyrido[2,3-d]pyrimidin-7-yl]benzamide] | – | – | – | – | < 50 nM | – | – |
| C[C@@H]1COCCN1c1nc(N2CCOC[C@H]2C)c2ccc(-c3cccc(C(=O)NCCOCCOCCOCCOCCOCCOCCOCCOC/C=C/C(=O)N4CCC[C@@H](n5nc(-c6ccc(Oc7ccccc7)cc6)c6c(N)ncnc65)C4)c3)nc2n1 [Compound I-5, N-[2-[2-[2-[2-[2-[2-[2-[2-[(E)-4-[(3R)-3-[4-amino-3-(4-phenoxyphenyl)pyrazolo[3,4-d]pyrimidin-1-yl]-1-piperidyl]-4-oxo-but-2-enoxy]ethoxy]ethoxy]ethoxy]ethoxy]ethoxy]ethoxy]ethoxy]ethyl]-3-[2,4-bis[(3R)-3-methylmorpholin-4-yl]pyrido[2,3-d]pyrimidin-7-yl]benzamide] | – | – | < 50 nM | – | 50 to 500 nM | – | – |
| C[C@@H]1COCCN1c1nc(N2CCOC[C@H]2C)c2ccc(-c3cccc(C(=O)NCCOCCOCCOCCOCCOc4ccc(C(=O)NC5C(C)(C)C(Oc6ccc(C#N)c(Cl)c6)C5(C)C)cc4)c3)nc2n1 (stereo partly drawn) [Compound I-10] | – | – | – | – | 50 to 500 nM | – | – |
| C[C@@H]1COCCN1c1nc(N2CCOC[C@H]2C)c2ccc(-c3cccc(C(=O)NCCOCCOCCOCCOC/C=C/C(=O)N4CCC[C@@H](n5nc(-c6ccc(Oc7ccccc7)cc6)c6c(N)ncnc65)C4)c3)nc2n1 [Compound I-3, N-[2-[2-[2-[2-[(E)-4-[(3R)-3-[4-amino-3-(4-phenoxyphenyl)pyrazolo[3,4-d]pyrimidin-1-yl]-1-piperidyl]-4-oxo-but-2-enoxy]ethoxy]ethoxy]ethoxy]ethyl]-3-[2,4-bis[(3R)-3-methylmorpholin-4-yl]pyrido[2,3-d]pyrimidin-7-yl]benzamide] | – | – | 50 to 500 nM | – | 50 to 500 nM | – | – |
